The experiment has as its system H9 cells. The experiment can be described thus: qHTS for survival of dissociated H9 cells (CellTiter-Glo, 24 hours after seeding). The format is cell-based, human. An excerpt:
FIG. 2 schematically illustrates qHTS procedure.
All the screed compounds were received pre-plated at the pre-determined concentrations. […] Curve classification is explained in Huang et al. “Chemical genomics profiling of environmental chemical modulation of human nuclear receptors” Environ. Health. Perspect.

The mark [1] stands for this setting: H9 cell survival normalized to 10 μM Y-27632 (taken to be 100%).
Where [2] appears, read: H9 cell survival, normalized to 10 μM Y-27632.
[3] abbreviates: Homo sapiens, H9, 24 h, H9 cell survival normalized to 10 μM Y-27632 (taken to be 100%); read-out: Max (maximum activity value from all tested concentrations).
[4] abbreviates: Homo sapiens, H9, 24 h, H9 cell survival, CellTiter-Glo 24 hours after seeding; read-out: AC50 (concentration at 50% efficacy).
Where [5] appears, read: Homo sapiens, H9, 24 h, H9 cell survival, normalized to 10 μM Y-27632; read-out: Efficacy (activity range between predicted activities at zero and infinite doses, Hill equation).
The mark [6] stands for this setting: H9 cell survival, CellTiter-Glo 24 hours after seeding; read-out: AC50 (concentration at 50% efficacy).
Where [7] appears, read: Homo sapiens, H9, 24 h; read-out: Efficacy (activity range between predicted activities at zero and infinite doses, Hill equation).
Setting [8] is: Homo sapiens, H9, 24 h; read-out: Max (maximum activity value from all tested concentrations).
Where [9] appears, read: Homo sapiens; H9 cell survival, CellTiter-Glo 24 hours after seeding; read-out: AC50 (concentration at 50% efficacy).

These results are taken from patent US20210348119A1, “COMPOSITIONS AND METHODS FOR CELL CULTURE” (The United States of America as Represented By The …, priority 2018, published 2021).

Several values for one entry are separate records, joined by “and”; a condition that tells them apart may be missing. Equal values may be shown once. Where a name gives a salt, the structure may show the parent alone. Read-outs that look alike come from different tables or passages of the source.

Take `CC(C)CCC(=O)CC1c2ccccc2C(=O)N1c1ccc2ccc(Cl)nc2n1` (single isomer, unassigned; (+)) [(+)-Pagoclone]: the “Max (maximum activity value from all tested concentrations)” value under setting [1] came to 22.94%. The “Efficacy (activity range between predicted activities at zero and infinite doses, Hill equation)” value under setting [2] is on record as 0.

Take `Oc1cccc2c(O)nccc12` [1,5-Isoquinolinediol]: the Emax reads like this: under setting [3], 41%; under setting [5], 42.2%. Besides, the AC50 under setting [4] was determined as 18.4 µM.

Take `CC1CN(S(=O)(=O)c2cccc3cnccc23)CCN1.Cl.Cl` (centres unmarked) [1-05-IsoquinolinylstilfonyI)-3-methylpiperazine dihydroehloride]: the “Max (maximum activity value from all tested concentrations)” value under setting [1] was 100.6%. Further, under setting [6], the AC50 was 20.6 µM. In addition, the “Efficacy (activity range between predicted activities at zero and infinite doses, Hill equation)” value under setting [2] is listed as 102.

Consider `COc1cccc(CNC(=O)Nc2nc(-c3ccncc3)cs2)c1` [1-(3-methoxybenzyl)-3-(4-(pyridin-4-yl)thiazol-2-yl)urea], for which the Emax is, setting by setting: under setting [3], 124%; under setting [5], 121%. The AC50 under setting [4] stood at 0.147 µM.

With `CC1CNCCN1S(=O)(=O)c1cccc2cnccc12.Cl.Cl` (centres unmarked) [1-(5-Isoquinolinylsulfonyl)-2-methylpipenvine dihydrochloride], the “Max (maximum activity value from all tested concentrations)” value under setting [1] was 85.52%. In addition, the AC50 under setting [6] is 4.61 µM. Besides, the “Efficacy (activity range between predicted activities at zero and infinite doses, Hill equation)” value under setting [2] is recorded as 92.2.

In the case of `C[C@]12C[C@@H](O)[C@H]3[C@@H](CC[C@@H]4C[C@@H](O)CC[C@@]43CO)[C@@]1(O)CC[C@@H]2C1=CC(=O)OC1` [19-hydroxysarmentogenin], the “Max (maximum activity value from all tested concentrations)” value under setting [1] is given as 21.79%. Under setting [6], the AC50 turned out to be 0.004 µM. Also, the “Efficacy (activity range between predicted activities at zero and infinite doses, Hill equation)” value under setting [2] was −11.5.

Take `Cc1n[nH]c2ccc(-c3cncc(OC[C@@H](N)Cc4c[nH]c5ccccc45)c3)cc12` [A-443654]: the Emax under setting [3] came to 39.8% and the Emax under setting [5] was 0%.

For the compound `Cc1cccc(NC(=O)c2ccc(C(F)(F)F)cc2C(=O)O)n1` [AF38469], the “Max (maximum activity value from all tested concentrations)” value under setting [1] is reported as 22.96%. Also, the AC50 under setting [6] was found to be 5.21 µM. Moreover, the “Efficacy (activity range between predicted activities at zero and infinite doses, Hill equation)” value under setting [2] is listed as 29.6.

With `CCn1c(-c2nonc2N)nc2c(C#CCO)ncc(OCCCN)c21` [AKT Kinase Inhibitor], under setting [1], the “Max (maximum activity value from all tested concentrations)” value is recorded as 46.89%. Also, the “Efficacy (activity range between predicted activities at zero and infinite doses, Hill equation)” value under setting [2] was 0.

For the compound `O=C1NC(=O)C(=O)C(=O)N1` [ALLOXAN], the Emax reads like this: under setting [7], 27.2%; under setting [8], 22.4%. Further, the AC50 under setting [9] stood at 5.21 µM.

As for `CNc1nccc(-c2cccnc2Oc2cc(C(=O)Nc3cccc(C(F)(F)F)c3)ccc2C)n1` [AMG-Tie2-1], the “Max (maximum activity value from all tested concentrations)” value under setting [1] worked out at 57.84%. The AC50 under setting [6] was determined as 18.7 µM. Also, under setting [2], the “Efficacy (activity range between predicted activities at zero and infinite doses, Hill equation)” value is recorded as 54.5.

`O=C(Nc1ccc(-c2ccncc2)cc1)N[C@H](CO)c1ccccc1` [AS 1892802]: the “Max (maximum activity value from all tested concentrations)” value under setting [1] worked out at 117.5%. Besides, under setting [6], the AC50 worked out at 1.31 µM. The “Efficacy (activity range between predicted activities at zero and infinite doses, Hill equation)” value under setting [2] is given as 115.

Regarding `Clc1ccc(C2(c3ccc(-c4cn[nH]c4)cc3)CCNCC2)cc1` [AT-7867], under setting [1], the “Max (maximum activity value from all tested concentrations)” value was 119.5% and 118.4%. Also, under setting [2], the “Efficacy (activity range between predicted activities at zero and infinite doses, Hill equation)” value is 92.2 and 104.

On to `NC[C@@](O)(c1ccc(Cl)cc1)c1ccc(-c2cn[nH]c2)cc1` [AT-13148], for which the Emax reads like this: under setting [3], 89.8%; under setting [5], 64.5%. For the same compound, the AC50 under setting [4] amounted to 0.104 µM.

As for `CCCCOc1c(C(=O)c2c(F)cc(C)cc2F)c[nH]c2nncc1-2` [BMS-265246], the Emax by setting is: under setting [3], 42.8%; under setting [5], 33.9%. In addition, the AC50 under setting [4] is 1.18 µM.

For `Cl.O=c1[nH]c([C@@H]2CCCN2)nc2c1oc1ccc(Cl)cc12` [BMS-863233 (XL-413)], the “Max (maximum activity value from all tested concentrations)” value under setting [1] is 22.03%. Moreover, the AC50 under setting [6] was 26.1 µM. Further, under setting [2], the “Efficacy (activity range between predicted activities at zero and infinite doses, Hill equation)” value is reported as 28.3.

Turning to `CCS(=O)(=O)N1CC(CC#N)(n2cc(-c3ncnc4[nH]ccc34)cn2)C1` [Baricitinib], the Emax under setting [3] worked out at 115%.

Turning to `CCCC1(C)C(C#N)(C#N)C1(C#N)C#N` [CCG-2046], the “Max (maximum activity value from all tested concentrations)” value under setting [1] is listed as 21.78%. The AC50 under setting [6] is 20.6 µM. Under setting [2], the “Efficacy (activity range between predicted activities at zero and infinite doses, Hill equation)” value is on record as 23.7.

Take `NC1(Cc2ccc(Cl)cc2)CCN(c2ncnc3[nH]ccc23)CC1` [CCT-128930]: the “Max (maximum activity value from all tested concentrations)” value under setting [1] was found to be 106.8%. Also, under setting [6], the AC50 was determined as 11.8 µM. In addition, under setting [2], the “Efficacy (activity range between predicted activities at zero and infinite doses, Hill equation)” value is on record as 133.

For the compound `COc1c(Nc2ncc(Cl)c(N[C@H]3[C@@H](C(N)=O)[C@@H]4C=C[C@H]3C4)n2)ccc2c1CC[C@@H](N1CCOCC1)CC2` [CEP-28122], the “Max (maximum activity value from all tested concentrations)” value under setting [1] stood at 23.83%. Also, the AC50 under setting [6] was 0.585 µM. Besides, the “Efficacy (activity range between predicted activities at zero and infinite doses, Hill equation)” value under setting [2] is listed as 23.5.

`CN1CCN(c2cccc(Nc3nc4c(-c5ccc(S(C)(=O)=O)cc5)cccn4n3)c2)CC1` [CEP-33779]: the “Max (maximum activity value from all tested concentrations)” value under setting [1] is 27.79%. For the same compound, the AC50 under setting [6] is 5.9 µM. For the same compound, the “Efficacy (activity range between predicted activities at zero and infinite doses, Hill equation)” value under setting [2] is listed as 25.5.

For the compound `O=c1[nH]c2ccc(Cl)cc2c(N[C@@H]2CN3CCC2CC3)c1-c1nc2ccccc2[nH]1` [CHIR-124], the “Max (maximum activity value from all tested concentrations)” value under setting [1] worked out at 21.27%. In addition, the AC50 under setting [6] is 0.235 µM. Besides, the “Efficacy (activity range between predicted activities at zero and infinite doses, Hill equation)” value under setting [2] is given as 12.4.

For the compound `Cc1[nH]c2ccccc2c1CCNC(=O)c1cccs1` [CK-636], the “Max (maximum activity value from all tested concentrations)” value under setting [1] worked out at 47.74%. Also, the “Efficacy (activity range between predicted activities at zero and infinite doses, Hill equation)” value under setting [2] is 0.

In the case of `COCCOc1ccc2c(c1)ncn2-c1ccc2cccc(N3CCC(N)CC3)c2n1` [CP-673451], the Emax by setting is: under setting [3], 35.6%; under setting [5], 0%.

Regarding `COCC(=O)NC/C=C/c1ccc2ncnc(Nc3ccc(Oc4ccc(C)nc4)c(C)c3)c2c1` [CP-724714], the Emax was 21.2% under setting [3] and 23.5% under setting [5]. The AC50 under setting [4] was determined as 20.8 µM.

Take `CCS(=O)(=O)N1CCN(c2ccc(Nc3ncc(C(N)=O)c(NC4CC4)n3)cc2)CC1` [Cerdulatinib]: the Emax is, setting by setting: under setting [3], 39%; under setting [5], 33.6%. Also, the AC50 under setting [4] was determined as 2.93 µM.

On to `C=C1[C@@H](C)[C@H]2[C@H](Cc3ccccc3)NC(=O)[C@]23OC(=O)/C=C/[C@H](O)CCC[C@@H](C)C/C=C/[C@H]3[C@@H]1O` [Cytochalasin B], for which the “Max (maximum activity value from all tested concentrations)” value under setting [1] was determined as 14.14%. Also, the AC50 under setting [6] amounted to 7.5 µM. Also, under setting [2], the “Efficacy (activity range between predicted activities at zero and infinite doses, Hill equation)” value is reported as 43.2.

As for `Cc1c(O)c(O)cc2c1CC=C1[C@@]2(C)CC[C@@]2(C)[C@@H]3C[C@](C)(C(=O)O)CC[C@]3(C)CC[C@]12C` [DIHYDROCELASTROL], the Emax is, setting by setting: under setting [7], 26.1%; under setting [8], 21.2%. In addition, the AC50 under setting [9] was determined as 14.7 µM.

Consider `CC(C)(C)c1nc(-c2cccc(NS(=O)(=O)c3c(F)cccc3F)c2F)c(-c2ccnc(N)n2)s1` [Dabrafenib], for which the Emax under setting [3] was 22% and the Emax under setting [5] was 21.7%. Further, the AC50 under setting [4] was 14.8 µM.

As to `CC[C@@](C)(Nc1ccnc(-c2c[nH]c3ncccc23)n1)C(=O)NCC(F)(F)F` [Decernotinib], the Emax runs as follows: under setting [3], 34%; under setting [5], 30.1%. The AC50 under setting [4] is 2.93 µM.

Turning to `Cn1c(=O)c2c(ncn2CC2OCCO2)n(C)c1=O` [Doxofylline], the AC50 under setting [4] was 0.521 µM. Besides, the Emax runs as follows: (Homo sapiens, H9, 24 h, read-out: Efficacy (activity range between predicted activities at zero and infinite doses, Hill equation)) 12.1%; (Homo sapiens, H9, 24 h, read-out: Max (maximum activity value from all tested concentrations)) 22.5%.

Regarding `CC1=NN(c2ccccc2)C(=O)C1` [Edaravone], the Emax is, setting by setting: under setting [3], 21%; under setting [5], 11%. Moreover, the AC50 under setting [4] amounted to 0.521 µM.

As for `O=S(=O)(c1cccc2cnccc12)N1CCCNCC1` [Fasudil hydrochloride], the Emax was 107% under setting [3] and 127% under setting [5]. The AC50 under setting [4] was determined as 33.2 µM.

With `CNCCC(Oc1ccc(C(F)(F)F)cc1)c1ccccc1` (centres unmarked) [Fluoxetine hydrochloride], the Emax under setting [3] came to 70.4% and the Emax under setting [5] is 0%.

Turning to `CC1(C)[C@@H](O[C@H]2O[C@H](C(=O)O)[C@@H](O)[C@H](O)[C@H]2O[C@@H]2O[C@H](C(=O)O)[C@@H](O)[C@H](O)[C@H]2O)CC[C@]2(C)[C@H]3C(=O)C=C4[C@@H]5C[C@@](C)(C(=O)O)CC[C@]5(C)CC[C@@]4(C)[C@]3(C)CC[C@@H]12.N` [GLYCYRRHIZIC ACID. AMMONIUM SALT], the “Max (maximum activity value from all tested concentrations)” value under setting [1] stood at 23.95%. For the same compound, the AC50 under setting [6] was 14.7 µM. In addition, the “Efficacy (activity range between predicted activities at zero and infinite doses, Hill equation)” value under setting [2] was 26.

For `CC1=C(C(=O)Nc2cc3cn[nH]c3cc2F)C(c2ccc(Cl)cc2F)N=C(c2ccnc(Cl)c2)N1` (centres unmarked) [GSK-25], the “Max (maximum activity value from all tested concentrations)” value under setting [1] was 121.1% and 113.3%. Also, the “Efficacy (activity range between predicted activities at zero and infinite doses, Hill equation)” value under setting [2] was 118 and 113.
